Entries after “also recorded” stand apart in the source; their conditions may differ.
Tests used:
cpd mutant seedlings = details: background statement; cited from earlier work
bri1-1 mutant seedlings = details: background statement; cited from earlier work
[1] = tested on: ASKs (A. thaliana GSK-3/Shaggy-like kinases); assay: In vitro kinase assay, GST-ASK fusion proteins with MBP and γ-[32P]-ATP; assay type: biochemical, Arabidopsis thaliana; details: compounds at 10 μM, result in words
Protocol: GST-ASK fusion proteins were incubated with MBP as substrate and γ-[32P]-ATP as co-substrate in the absence (−) or presence of different derivatives (the numbers correspond to Table 1). […] The compounds were used at a concentration of 10 μM. The proteins were separated by SDS-PAGE and the incorporated radioactive phosphate detected with a storage phosphor imager screen.
(§1) ASKs were expressed as GST-fusion proteins in E. coli BL21. In vitro kinase assays were performed by incubating 50 ng GST-fusion protein, 10 μg myelin basic protein (MBP; Sigma, St Louis, Mo.) as substrate and 0.15 MBq γ-[32P]-ATP as co-substrate at 25° C. for 30 min. The reaction buffer consisted of 20 mM HEPES pH7.4, 15 mM MgCl2, 5 mM EGTA and 1 mM DTT. For initial experiments cold ATP was included at concentrations up to 3 μM. The reaction products were separated by SDS-PAGE and the amount of radioactivity incorporated into MBP quantified using an Amersham storage phosphor imager screen and a Biorad Molecular Imager FX. In vivo kinase activity was detected by phosphorylation band-shift assays using BZR1-CFP as substrate.
Representatives of all groups were expressed as recombinant GST fusion proteins in E. coli.

BIN2 = target: T1, BIN2 (Arabidopsis thaliana, UniProt Q39011); assay: In vitro kinase assay, GST-BIN2; assay type: biochemical; details: compounds at 10 μM; result in words
T1 construct: made in house; host or cells: E. coli BL21
T1 sequence (Q39011 1-380): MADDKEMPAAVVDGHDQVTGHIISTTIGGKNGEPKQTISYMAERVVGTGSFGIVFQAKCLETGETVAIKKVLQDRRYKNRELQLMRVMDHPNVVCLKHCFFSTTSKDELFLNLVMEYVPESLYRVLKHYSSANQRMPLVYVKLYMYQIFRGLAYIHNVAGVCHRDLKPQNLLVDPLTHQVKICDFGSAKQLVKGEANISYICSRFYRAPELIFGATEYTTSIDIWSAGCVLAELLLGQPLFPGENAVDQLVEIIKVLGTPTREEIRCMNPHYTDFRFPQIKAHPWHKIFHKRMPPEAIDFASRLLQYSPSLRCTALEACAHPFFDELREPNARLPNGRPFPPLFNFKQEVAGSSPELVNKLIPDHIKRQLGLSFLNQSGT
Protocol: GST-BIN2 was incubated with MBP and γ-[32P]-ATP in the absence or presence of compounds 3, 14 and 15 at a concentration of 10 μM. The proteins were separated by SDS-PAGE and phosphorylation of MBP was quantified with a phospho imager screen. The residual activity is expressed in % of the control. The means and standard deviations were calculated from 4 independent assays.
as §1
The second kinase of this class, ASKβ, and the group IV kinase ASKδ are not inhibited. Representatives of all groups were expressed as recombinant GST fusion proteins in E. coli. […]

ASKζ = target: T2, ASKζ (Arabidopsis thaliana, UniProt Q39010); assay: In vivo kinase assay, BZR1-CFP phosphorylation band-shift in protoplasts; assay type: cell-based, A. thaliana; details: protoplasts co-transformed with BZR1-CFP and Myc-tagged ASK; increasing concentrations
T2 construct: expressed in transfected cells; host or cells: A. thaliana protoplasts
T2 sequence (Q39010 1-412): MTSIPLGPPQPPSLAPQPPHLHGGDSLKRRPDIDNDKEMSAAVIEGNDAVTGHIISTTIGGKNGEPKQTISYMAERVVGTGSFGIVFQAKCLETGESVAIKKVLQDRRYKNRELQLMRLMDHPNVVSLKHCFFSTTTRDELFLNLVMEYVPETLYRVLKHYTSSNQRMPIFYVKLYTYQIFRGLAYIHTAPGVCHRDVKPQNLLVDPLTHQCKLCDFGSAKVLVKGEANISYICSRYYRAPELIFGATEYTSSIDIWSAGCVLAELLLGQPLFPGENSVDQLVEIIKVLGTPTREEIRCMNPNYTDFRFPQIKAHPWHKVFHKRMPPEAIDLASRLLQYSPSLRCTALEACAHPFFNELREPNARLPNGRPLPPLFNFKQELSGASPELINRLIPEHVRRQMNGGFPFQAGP
Excerpt: A. thaliana protoplasts were co-transformed with expression constructs of BZR1-CFP and Myc-tagged ASKζ and treated with increasing concentrations of compounds 10 and 15. […] and ASKζ-Myc were detected by western blot analysis using polyclonal anti-GFP and monoclonal anti-Myc antibodies, respectively. A Coomassie R250 stain is shown as a loading control. Depending on the ASKζ kinase activity BZR1-CFP can be observed in a phosphorylated or unphosphorylated form (indicated by arrows). The ratio of the two ASKζ-Myc bands, indicating posttranslational modification of this protein, were not affected by inhibitor application.
ASKs were expressed as GST-fusion proteins in E. coli BL21. […] The reaction products were separated by SDS-PAGE and the amount of radioactivity incorporated into MBP quantified using an Amersham storage phosphor imager screen and a Biorad Molecular Imager FX. In vivo kinase activity was detected by phosphorylation band-shift assays using BZR1-CFP as substrate.
Because of this unexpected result, the effect of the inhibitions on the in vivo ASK activity was analysed by a direct method. […] Transformed protoplasts were incubated with different concentrations of compounds 10 and 15 and BZR1-CFP and […] and subsequently analysed by western blotting.

[2] = Determination of pKa values; details: for pKa: 50% (v/v) methanol
Protocol: Fifty to 100 mg compound were weighed and dissolved in 50 ml 50% (v/v) methanol. A titration curve with 50 mM NaOH as standard solution was recorded with a Greisinger electonics GPHR 1400A pH meter. The equivalence point was determined by the difference quotient method (ΔpH/ΔVNaOH) and the pKa read from the titration curve at 50% neutralisation.

ASKθ = target: T3, ASKθ (Arabidopsis thaliana, UniProt Q96287); details: prior knowledge; cited from earlier work
T3 construct: made in house; host or cells: E. coli BL21
T3 sequence (Q96287 1-472): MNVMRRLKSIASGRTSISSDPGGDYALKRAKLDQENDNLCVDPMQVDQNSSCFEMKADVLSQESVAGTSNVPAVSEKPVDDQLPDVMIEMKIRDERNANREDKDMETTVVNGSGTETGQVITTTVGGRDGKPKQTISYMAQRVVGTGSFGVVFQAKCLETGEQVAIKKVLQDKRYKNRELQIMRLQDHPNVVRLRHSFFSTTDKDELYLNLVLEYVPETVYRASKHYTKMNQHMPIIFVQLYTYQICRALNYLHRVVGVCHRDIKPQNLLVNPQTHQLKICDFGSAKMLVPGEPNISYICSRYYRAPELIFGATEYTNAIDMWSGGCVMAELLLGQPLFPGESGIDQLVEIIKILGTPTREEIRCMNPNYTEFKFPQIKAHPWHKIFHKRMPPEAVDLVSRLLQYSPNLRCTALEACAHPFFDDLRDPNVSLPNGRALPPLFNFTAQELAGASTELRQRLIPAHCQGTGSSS

ASKβ = target: T4, ASKβ (Arabidopsis thaliana, UniProt O23145); details: prior knowledge; cited from earlier work
T4 construct: made in house; host or cells: E. coli BL21
T4 sequence (O23145 1-431): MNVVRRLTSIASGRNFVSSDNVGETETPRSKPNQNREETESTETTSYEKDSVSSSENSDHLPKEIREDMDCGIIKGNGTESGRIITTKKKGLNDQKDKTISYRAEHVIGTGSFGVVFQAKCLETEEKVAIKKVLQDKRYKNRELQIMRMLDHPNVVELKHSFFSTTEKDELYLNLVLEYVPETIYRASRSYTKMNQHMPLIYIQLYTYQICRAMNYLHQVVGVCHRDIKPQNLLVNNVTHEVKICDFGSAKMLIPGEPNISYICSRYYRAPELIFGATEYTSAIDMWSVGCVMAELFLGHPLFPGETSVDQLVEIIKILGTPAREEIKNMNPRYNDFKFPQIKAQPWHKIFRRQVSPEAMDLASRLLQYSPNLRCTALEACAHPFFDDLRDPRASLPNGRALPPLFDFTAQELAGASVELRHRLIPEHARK

ASKδ = target: T5, ASKδ (Arabidopsis thaliana, UniProt Q9FVS6); details: prior knowledge; listed as 4-[(5-bromo-2-pyridinyl)amino]-4-oxobutanoic acid; cited from earlier work
T5 construct: made in house; host or cells: E. coli BL21
T5 sequence (Q9FVS6 1-420): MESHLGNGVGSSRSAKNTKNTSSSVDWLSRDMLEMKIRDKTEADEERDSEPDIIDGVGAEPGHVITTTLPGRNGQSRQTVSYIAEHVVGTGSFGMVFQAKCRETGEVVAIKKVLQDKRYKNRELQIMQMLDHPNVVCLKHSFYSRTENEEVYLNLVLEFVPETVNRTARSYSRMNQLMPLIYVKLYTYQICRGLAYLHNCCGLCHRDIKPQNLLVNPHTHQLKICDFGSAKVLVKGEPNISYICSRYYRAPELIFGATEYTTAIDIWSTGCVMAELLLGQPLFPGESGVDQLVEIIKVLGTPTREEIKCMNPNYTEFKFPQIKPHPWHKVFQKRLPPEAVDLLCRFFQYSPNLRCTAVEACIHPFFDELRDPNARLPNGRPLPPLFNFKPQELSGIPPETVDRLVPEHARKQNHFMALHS

[3] = tested on: group I and group II ASKs; details: group I: ASKα, ASKγ, ASKε; group II: BIN2, ASKζ, ASKι; prior knowledge; listed as 4-[(5-bromo-2-pyridinyl)amino]-4-oxobutanoic acid; cited from earlier work

Row | SMILES | Rescue of cpd mutant (cpd mutant seedlings) | Rescue of bri1-1 mutant (bri1-1 mutant seedlings) | Inhibition of ASKs in vitro (MBP phosphorylation) [1] | Inhibition of ASKs in vitro (MBP phosphorylation) ([1]; listed as iodo derivative) | Inhibition of BIN2 in vitro (residual kinase activity) (BIN2) | Inhibition of in vivo ASK activity (BZR1-CFP phosphorylation shift) (ASKζ) | pKa [2] | Portion undissociated ([2]; intracellular pH of 7.4) | Portion undissociated / lipophilic, capable of diffusion through the membrane ([2]; pH5.8, the pH of the medium) | Inhibition of ASKθ (group III) (ASKθ) | Inhibition of ASKβ (group III) (ASKβ) | Inhibition of ASKδ (group IV) (ASKδ) | Inhibition of group I and group II ASKs [3]
1 | CC(C)[C@@H](C)[C@@H](O)[C@H](O)[C@@H](C)[C@H]1CC[C@H]2[C@@H]3COC(=O)[C@H]4C[C@H](O)[C@H](O)C[C@]4(C)[C@H]3CC[C@]12C [epi-brassinolide] | rescues cpd | not bril-1 |  |  |  |  |  |  |  |  |  |  | 
2 | O=C(O)CCC(=O)Nc1ccc(I)cn1 [Compound 15, 4-[(5-iodopyrid-2-yl)amino]-4-oxobutanoic acid] |  |  | highest activity; also recorded: most potent compound in vitro | highly active | highest potency | potent inhibitors in vivo; also recorded: highly active; also recorded: high inhibitory activity in vivo | 5.8 | less than 3% | 50% |  |  |  | 
3 | O=C(O)CCC(=O)Nc1ccc(Br)cn1 [Compound 14, 4-[(5-bromopyrid-2-yl)amino]-4-oxobutanoic acid] | rescues both mutants | rescues both mutants | highly active |  |  |  | 5.6 |  |  | moderately inhibited | not inhibited | not inhibited; also recorded: insensitive | potent inhibitor; also recorded: most sensitive

Reference: US8642510B2, “Inhibitors for brassinosteroid signalling” (GMI-Gregor Mendel-Institut fuer Molekulare Pflanzenbiologie …, priority 2008, dated 2014)
